Read-outs that look alike come from different tables or passages of the source.
How the values were obtained:
TLR7 = target: T1, TLR7 (Homo sapiens, UniProt Q9NYK1); experiment: In vitro human TLR7 binding reporter assay (HEK-Blue, NF-kB/AP1-inducible SEAP); format: cell-based; conditions: read-out: TLR7 Agonist EC50
T1 construct: human HEK-Blue cells co-expressing a TLR7 or TLR8 gene
T1 sequence (Q9NYK1 27-1049): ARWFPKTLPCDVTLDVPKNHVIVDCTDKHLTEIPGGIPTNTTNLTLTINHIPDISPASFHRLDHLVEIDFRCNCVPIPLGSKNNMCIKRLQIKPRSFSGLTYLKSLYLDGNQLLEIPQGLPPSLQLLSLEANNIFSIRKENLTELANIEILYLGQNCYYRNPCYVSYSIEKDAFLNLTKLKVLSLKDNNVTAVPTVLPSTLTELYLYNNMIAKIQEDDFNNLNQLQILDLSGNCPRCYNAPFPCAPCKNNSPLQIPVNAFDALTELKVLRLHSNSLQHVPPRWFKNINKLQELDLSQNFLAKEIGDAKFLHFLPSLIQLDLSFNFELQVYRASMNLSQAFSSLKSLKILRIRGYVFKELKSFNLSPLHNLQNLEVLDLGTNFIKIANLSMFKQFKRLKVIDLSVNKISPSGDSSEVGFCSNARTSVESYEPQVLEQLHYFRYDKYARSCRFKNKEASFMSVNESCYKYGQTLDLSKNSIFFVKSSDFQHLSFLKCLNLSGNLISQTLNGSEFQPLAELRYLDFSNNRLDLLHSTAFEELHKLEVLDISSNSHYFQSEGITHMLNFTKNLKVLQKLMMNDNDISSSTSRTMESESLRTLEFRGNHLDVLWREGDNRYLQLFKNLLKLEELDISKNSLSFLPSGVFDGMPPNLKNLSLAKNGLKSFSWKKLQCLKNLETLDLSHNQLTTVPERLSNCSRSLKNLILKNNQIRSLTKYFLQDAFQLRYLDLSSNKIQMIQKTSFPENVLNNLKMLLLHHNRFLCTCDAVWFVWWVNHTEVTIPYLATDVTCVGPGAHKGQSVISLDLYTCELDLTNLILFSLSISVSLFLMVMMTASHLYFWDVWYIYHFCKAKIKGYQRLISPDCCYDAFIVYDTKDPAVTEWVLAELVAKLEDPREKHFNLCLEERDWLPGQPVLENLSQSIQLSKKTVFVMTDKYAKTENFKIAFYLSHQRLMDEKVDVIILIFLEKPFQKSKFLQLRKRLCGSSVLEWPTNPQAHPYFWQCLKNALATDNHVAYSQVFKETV
Procedure, shortened: (§1)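 Cells are seeded and grown for 24 h. Compounds or DMSO are then added and incubated 18 h at 37 °C. Quanti-Blue is added, and SEAP is read after thirty minutes. EC50 values are normalized, with RLU from 50 μM reference standard setting 100% Ymax.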

TLR8 = target: T2, TLR8 (Homo sapiens, UniProt Q9NR97); experiment: In vitro human TLR8 binding reporter assay (HEK-Blue, NF-kB/AP1-inducible SEAP); format: cell-based; conditions: read-out: TLR8 Agonist EC50
T2 construct: human HEK-Blue cells co-expressing a TLR7 or TLR8 gene
T2 sequence (Q9NR97 27-1041): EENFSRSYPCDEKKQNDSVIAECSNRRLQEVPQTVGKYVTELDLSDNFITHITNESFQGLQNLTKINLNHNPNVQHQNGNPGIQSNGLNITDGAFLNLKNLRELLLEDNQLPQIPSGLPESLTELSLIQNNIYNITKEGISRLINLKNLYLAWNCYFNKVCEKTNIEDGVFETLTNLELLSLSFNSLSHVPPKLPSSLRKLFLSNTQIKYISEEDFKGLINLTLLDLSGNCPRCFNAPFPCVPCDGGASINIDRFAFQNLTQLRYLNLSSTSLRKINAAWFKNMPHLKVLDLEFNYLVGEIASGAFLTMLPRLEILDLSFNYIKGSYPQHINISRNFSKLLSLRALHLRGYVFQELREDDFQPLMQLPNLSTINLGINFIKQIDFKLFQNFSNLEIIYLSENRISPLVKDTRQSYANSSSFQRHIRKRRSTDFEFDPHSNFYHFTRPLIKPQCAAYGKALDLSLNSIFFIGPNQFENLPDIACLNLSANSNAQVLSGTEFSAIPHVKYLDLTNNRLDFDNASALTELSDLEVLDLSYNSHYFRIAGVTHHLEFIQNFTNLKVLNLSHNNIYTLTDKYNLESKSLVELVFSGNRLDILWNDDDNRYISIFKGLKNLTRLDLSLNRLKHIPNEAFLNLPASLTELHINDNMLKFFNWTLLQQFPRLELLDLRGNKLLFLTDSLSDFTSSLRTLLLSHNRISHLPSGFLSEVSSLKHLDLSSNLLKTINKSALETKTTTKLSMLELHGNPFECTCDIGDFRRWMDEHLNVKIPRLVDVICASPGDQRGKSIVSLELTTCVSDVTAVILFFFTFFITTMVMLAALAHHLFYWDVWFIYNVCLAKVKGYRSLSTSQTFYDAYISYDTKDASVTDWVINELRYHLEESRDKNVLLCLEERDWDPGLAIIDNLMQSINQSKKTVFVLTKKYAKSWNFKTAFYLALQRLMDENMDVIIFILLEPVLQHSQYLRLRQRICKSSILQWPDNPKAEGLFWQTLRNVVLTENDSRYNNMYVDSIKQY
Procedure, shortened: as §1

THP-1 cells = experiment: Measurement of IL-1β production, hTRF protocol (second alternative procedure), THP-1 cells; format: cell-based, human
Procedure, shortened: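 Compounds, dilution series starting at a final 10 μM, were incubated 2 hours at 37° C with PMA-differentiated THP-1 cells (50 ng/ml overnight; 50,000 cells/well, 2% FBS RPMI). Released IL-1β quantified in supernatant by hTRF kit with 1:40 antibody dilution, 4° C overnight, 665/615 nm ratio.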

[1] = Homo sapiens, THP-1, IL-1β production, human, read-out: NLRP3 hILIB EC50
[2] = Homo sapiens, THP-1, IL-1β production, human cells, read-out: NLRP3 hILIB EC50

| Compound | EC50 (TLR7; activity range class) [µM] | EC50 (TLR8; activity range class) [µM] | EC50 (THP-1 cells; [1]) [µM] | EC50 (TLR7; activity range) [µM] | EC50 (TLR8; activity range) [µM] | EC50 (THP-1 cells; [2]) [µM] | EC50 (THP-1 cells; Homo sapiens, THP-1, read-out: NLRP3 hILIB EC50) [µM] | EC50 (THP-1 cells; IL-1β production, human, read-out: NLRP3 hILIB EC50) [µM] |
| --- | --- | --- | --- | --- | --- | --- | --- | --- |
| CC(CCO)n1cc2c(N)nc3cc(-c4cc[nH]n4)ccc3c2n1 (single isomer, unassigned) [Example 287, 3-(4-amino-7-(1H-pyrazol-3-yl)-2H-pyrazolo[4,3-c]quinolin-2-yl)butan-1-ol] | > 100 | > 100 | 0.26 | – | – | – | – | – |
| Nc1nc2cc(-c3cc[nH]n3)ccc2c2nn(C[C@@H]3CC(F)(F)CN3)cc12 [Example 363] | > 100 | > 100 | 1.84 | – | – | – | – | – |
| Cc1nc(C)c(C(=O)NCCn2cc3c(n2)c(N)nc2cc(-c4cc[nH]n4)ccc23)o1 [Example 46] | > 100 | > 100 | 4.19 | – | – | – | – | – |
| CN(C(=O)Cn1cc2c(n1)c(N)nc1cc(-c3cc[nH]n3)ccc12)[C@H]1CCOC1 [Example 549] | – | – | – | > 100 | > 100 | 3.95 | – | – |
| Nc1nc2cc(-c3cc[nH]n3)ccc2c2cn(CCN3Cc4ccccc4C3=O)nc12 [Example 102, 2-{2-[4-amino-7-(1H-pyrazol-3-yl)-2H-pyrazolo[3,4-c]quinolin-2-yl]ethyl}-2,3-dihydro-1H-isoindol-1-one] | 20 to 100 | 20 to 100 | 0.41 | – | – | – | – | – |
| Cc1ccc(C(=O)NCCn2cc3c(n2)c(N)nc2cc(-c4cc[nH]n4)ccc23)nc1 [Example 94] | > 100 | 20 to 100 | 0.21 | – | – | – | – | – |
| Nc1nc2cc(-c3ccn[nH]3)ccc2c2nn(CCCNS(=O)(=O)c3ccccc3)cc12 [Example 587] | – | – | – | > 100 | > 100 | 2.39 | – | – |
| CC(=O)NCCn1cc2c(n1)c(N)nc1cc(-c3cccs3)ccc12 [Example 130] | > 100 | > 100 | 0.64 | – | – | – | – | – |
| Nc1nc2cc(-c3cc[nH]n3)ccc2c2cn(CCNC(=O)[C@H]3CCCO3)nc12 [Example 177] | > 100 | > 100 | 2.23 | – | – | – | – | – |
| CC(C)(Cn1cc2c(N)nc3cc(-c4ccn[nH]4)ccc3c2n1)NC(=O)C1CCCO1 (stereo not drawn) [Example 262] | > 100 | > 100 | 0.75 | – | – | – | – | – |
| Nc1nc2cc(-c3cc[nH]n3)ccc2c2nn(CC3CC(F)(F)C3)cc12 [Example 335] | > 100 | > 100 | 0.39 | – | – | – | – | – |
| Nc1nc2cc(-n3cccn3)ccc2c2cn(CCNC(=O)c3ccccc3)nc12 [Example 132, N-{2-[4-amino-7-(1H-pyrazol-1-yl)-2H-pyrazolo[3,4-c]quinolin-2-yl]ethyl}benzamide] | > 100 | 20 to 100 | – | – | – | – | 0.34 | – |
| COCCCCn1cc2c(N)nc3cc(-c4cc[nH]n4)ccc3c2n1 [Example 218] | > 100 | > 100 | 0.2 | – | – | – | – | – |
| Nc1nc2cc(-c3cc[nH]n3)ccc2c2nn(C[C@H](O)CO)cc12 [Example 364] | > 100 | > 100 | 1.47 | – | – | – | – | – |
| Cc1nc(Cn2cc3c(N)nc4cc(-c5cc[nH]n5)ccc4c3n2)no1 [Example 355] | > 100 | > 100 | 2.57 | – | – | – | – | – |
| Nc1nc2cc(-c3cc[nH]n3)ccc2c2cn(CC(=O)N3CC(F)C3)nc12 [Example 543] | – | – | – | > 100 | > 100 | 2.03 | – | – |

| Compound | EC50 (TLR7; activity range class) [µM] | EC50 (TLR8; activity range class) [µM] | EC50 (THP-1 cells; [1]) [µM] | EC50 (TLR7; activity range) [µM] | EC50 (TLR8; activity range) [µM] | EC50 (THP-1 cells; [2]) [µM] | EC50 (THP-1 cells; Homo sapiens, THP-1, read-out: NLRP3 hILIB EC50) [µM] | EC50 (THP-1 cells; IL-1β production, human, read-out: NLRP3 hILIB EC50) [µM] |
| --- | --- | --- | --- | --- | --- | --- | --- | --- |
| CC(C)(C(=O)NCCO)n1cc2c(N)nc3cc(-c4cc[nH]n4)ccc3c2n1 [Example 521] | – | – | – | > 100 | > 100 | 5.67 | – | – |
| Nc1nc2cc(-c3cc[nH]n3)ccc2c2[nH]c(CCNC(=O)c3cc(F)ccn3)cc12 [Example 416] | – | – | – | > 100 | > 100 | 0.15 | – | – |
| CCn1c(CN(C)C)cc2c(N)nc3cc(-c4ccn[nH]4)ccc3c21 [Example 444] | – | – | – | > 100 | > 100 | 0.26 | – | – |
| COCCN(C)C(=O)C(C)n1cc2c(N)nc3cc(-c4ccn[nH]4)ccc3c2n1 (stereo not drawn) [Example 582] | – | – | – | > 100 | > 100 | 3.3 | – | – |
| CC(C)NC(=O)CCn1cc2c(N)nc3cc(-c4cc[nH]n4)ccc3c2n1 [Example 510] | – | – | – | > 100 | > 100 | 2.47 | – | – |
| CN1CCOC(C(=O)NCCn2cc3c(n2)c(N)nc2cc(-c4cc[nH]n4)ccc23)C1 (single isomer, unassigned) [Example 180] | > 100 | > 100 | – | – | – | – | – | 36.7 |
| Nc1nc2cc(-c3cc[nH]n3)ccc2c2nn(CCC(F)F)cc12 [Example 354] | > 100 | > 100 | 0.3 | – | – | – | – | – |
| C[C@@H](Cn1cc2c(n1)c(N)nc1cc(-c3cc[nH]n3)ccc12)NS(C)(=O)=O [Example 531] | – | – | – | > 100 | > 100 | 1.68 | – | – |
| CC(C)(C(=O)NCc1ccccn1)n1cc2c(N)nc3cc(-c4cc[nH]n4)ccc3c2n1 [Example 525] | – | – | – | > 100 | > 100 | 20.2 | – | – |
| CN(C)C(=O)C(C)(C)Cn1cc2c(N)nc3cc(-c4ccn[nH]4)ccc3c2n1 [Example 592] | – | – | – | > 100 | > 100 | 0.68 | – | – |
| CNC(=O)CC(C)n1cc2c(N)nc3cc(-c4cc[nH]n4)ccc3c2n1 (stereo not drawn) [Example 621] | – | – | – | > 100 | > 100 | 1.86 | – | – |
| Nc1nc2cc(-c3cc[nH]n3)ccc2c2nn([C@@H]3CC[C@H](O)C3)cc12 (relative stereo) [Example 210, cis-3-(4-amino-7-(1H-pyrazol-3-yl)-2H-pyrazolo[4,3-c]quinolin-2-yl)cyclopentan-1-ol] | > 100 | > 100 | 0.33 | – | – | – | – | – |
| COC1CCC(n2cc3c(N)nc4cc(-c5cc[nH]n5)ccc4c3n2)C1 (stereo not drawn) [Example 246] | > 100 | > 100 | 0.58 | – | – | – | – | – |
| NC(=O)Cn1cc2c(N)nc3cc(-n4cccn4)ccc3c2n1 [Example 555] | – | – | – | > 100 | > 100 | 0.33 | – | – |
| Nc1nc2cc(-c3cc[nH]n3)ccc2c2cn(CCc3ccccn3)nc12 [Example 163] | > 100 | > 100 | 0.06 | – | – | – | – | – |
| CC(=O)N1CCOCC1Cn1cc2c(N)nc3cc(-c4ccn[nH]4)ccc3c2n1 (stereo not drawn) [Example 269] | > 100 | > 100 | 4.38 | – | – | – | – | – |
